Where two headings read alike, the source gives them in different places.
Key:
5-HT1AR = biological target: T1, 5-HT1AR (Homo sapiens, UniProt P08908); experiment: Radioligand binding assay (RBA), 5-HT1AR; conditions: ± SD; displacement of [3H]-8-OHDPAT, HEK-293 cells; read-out: Ki 5-HT1A (converted)
T1 construct: expressed in transfected cells; host or cells: HEK-293
T1 sequence (P08908 1-422): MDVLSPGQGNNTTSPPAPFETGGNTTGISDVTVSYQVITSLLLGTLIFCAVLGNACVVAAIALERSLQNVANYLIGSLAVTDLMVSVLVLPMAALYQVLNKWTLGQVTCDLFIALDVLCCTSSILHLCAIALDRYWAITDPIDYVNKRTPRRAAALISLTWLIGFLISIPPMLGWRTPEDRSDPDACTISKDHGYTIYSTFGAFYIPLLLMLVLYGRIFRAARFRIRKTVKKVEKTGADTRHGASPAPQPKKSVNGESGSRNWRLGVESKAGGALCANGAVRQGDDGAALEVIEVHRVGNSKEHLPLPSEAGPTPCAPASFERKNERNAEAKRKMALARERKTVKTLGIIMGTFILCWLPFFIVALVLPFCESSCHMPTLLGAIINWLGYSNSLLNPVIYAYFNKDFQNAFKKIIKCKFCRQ
Experimental: The cells used in the radioligand binding assays receptor 5-HT1A were stably expressed in HEK-293 cells. Transfections were performed with the use of Lipofectamine 2000. The binding procedure was accomplished via the displacement of 2.5 nM [^3H]-8-OHDPAT (135.2 Ci/mmol) for 5-HT1AR. Each compound was tested in triplicate in seven to eight different concentrations (10^−11 to 10^−4 M). The inhibition constants (Ki) were calculated using the Cheng–Prusoff equation [45] and the results are expressed as the mean of at least two independent experiments.

rats = experiment: Elevated plus-maze (EPM) test; assay type: in vivo, rat; conditions: for Open Arms % of entries / Open Arms % of time / Open Arms Distance / Open Arms Entries / Open Arms Time: mean ± SEM
Excerpt: The testing procedure was based on a method described by. Plus-maze apparatus (an automated device produced by Campden Instruments Ltd. (Leicestershire, UK) made of durable, high density, non-porous black plastic, elevated to a height of 50 cm, consisted of two open arms (50 × 10 cm) and two closed arms (50 × 10 cm, and 30 cm high walls), arranged so that the two arms of each type were opposite each other. The floor of the plus-maze was made of infrared transparent material what means that there are no visible sensors. Plus-maze apparatus was connected to PC software by control chassis. The experiments were conducted in a darkened room, only the center of the maze was illuminated with low-intensity light (30 lux measured on the maze level). Each rat was gently placed in the center of the plus-maze, facing one of the closed arms, immediately after a 5-min adaptation period in a plastic black box (60 × 60 × 35 cm), to increase the overall activity in the EPM. During a 5-min test period, automated Motor Monitor System recorded the number of entries into the closed and open arms and the time spent in either type of arms. The device counted an effective arm-entry when the four paws of a rat were into any arm. The maze was thoroughly cleaned after each trial. The EPM test is an “unconditional” anxiety-like test based on rodents’ natural aversion to heights and open space.

dopaminergic receptor D2 = conditions: ± SD; cited from earlier work
5-HT2A receptor = biological target: T2, 5-HT2A receptor (Homo sapiens, UniProt P28223); experiment: Functional assay for 5-HT2A receptor (aequorin, CHO-K1 cells); assay type: cell-based
T2 construct: expressed in transfected cells; host or cells: CHO-K1
T2 sequence (P28223 whole entry): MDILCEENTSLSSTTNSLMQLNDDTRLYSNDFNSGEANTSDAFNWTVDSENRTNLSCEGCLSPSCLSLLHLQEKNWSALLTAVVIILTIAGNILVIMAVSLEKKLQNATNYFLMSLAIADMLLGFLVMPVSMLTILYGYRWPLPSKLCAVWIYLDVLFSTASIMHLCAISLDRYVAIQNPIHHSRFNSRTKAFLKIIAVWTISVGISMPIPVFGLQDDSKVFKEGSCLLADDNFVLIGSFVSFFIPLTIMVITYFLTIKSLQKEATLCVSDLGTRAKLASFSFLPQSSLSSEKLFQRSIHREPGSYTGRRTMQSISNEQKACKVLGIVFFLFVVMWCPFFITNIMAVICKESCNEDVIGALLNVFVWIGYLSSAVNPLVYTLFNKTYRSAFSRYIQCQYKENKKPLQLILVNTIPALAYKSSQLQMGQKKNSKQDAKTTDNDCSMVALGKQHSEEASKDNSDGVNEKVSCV
Experimental: Test compounds were dissolved in dimethyl sulfoxide (DMSO) at a concentration of 10 mM. Serial dilutions were prepared in a 96-well microplate in assay buffer and eight concentrations were tested. A cellular aequorin-based functional assay was performed with recombinant CHO-K1 cells expressing mitochondrially targeted aequorin, human GPCR and the promiscuous G protein α16 for 5-HT2A. […] After thawing, cells were transferred to assay buffer (DMEM/HAM’s F12 with 0.1% protease-free BSA) and centrifuged. The cell pellet was resuspended in assay buffer and coelenterazine h was added at final concentrations of 5 μM. […] After 1 h of incubation, 50 μL of the cells suspension was dispensed using automatic injectors built into the plate reader POLARstar Omega, (BMG Labtech, Ortenberg, Germany) onto a white opaque 96-well microplates preloaded with test compounds. Immediate light emission generated following calcium mobilization was recorded for 30 s. In antagonist mode, after 30 min of incubation, the reference agonist was added to the above assay mix and light emission was recorded again. The final concentration of the reference agonist was equal to EC80.

[1] = test system: neuroblastoma SH-SY5Y cells; experiment: Neurotoxicity in SH-SY5Y (MTS and LDH assays); assay type: cell-based, human; conditions: 100 μM, 48 h, vs control cells
Experimental: Human neuroblastoma cell line SH-SY5Y (ATCC® no. CRL-2266™) was used for neurotoxicity evaluation. […] To perform dose–response analysis, 2-fold serial dilutions (12 points) were prepared. Treatment with compounds was performed for 48 h. After the incubation time, 100μL of culture medium was transferred to black well plates to examined membrane integrity using the CytoTox-ONE™ Homogeneous Membrane Integrity Assay (Promega, Madison, WI, USA) following the manufacturer’s protocol. Briefly, a volume of 100 µL CytoTox-ONE™ reagent was added to each well and carefully mixed under gentle shaking. […] The plate was incubated at room temperature for 15 min and the fluorescence was then recorded at an excitation wavelength of 560 nm and an emission wavelength of 590 nm using the microplate reader EnSpire (PerkinElmer, Waltham, MA, USA). […] Cytotoxicity is expressed as a percentage relative to the positive control, which is assumed to be responsible for 100% LDH release.
The cell viability was examined using an MTS-based [3-(4,5-dimethylthiazol-2-yl)-5-(3-carboxymethoxyphenyl)-2-(4-sulfophenyl)-2 H tetrazolium] […] After incubation time, formazan product turnover absorbance was measured at 490 nm using the microplate reader EnSpire (PerkinElmer, Waltham, MA, USA). […]

SMILES: CCC(Oc1ccccc1)c1nc(N)nc(N2CCN(C)CC2)n1 (racemic) [Compound 3, (RS)-4-(4-methylpiperazin-1-yl)-6-(1-phenoxypropyl)-1,3,5-triazin-2-amine]
- Ki (5-HT1AR): 3.64 µM
- Open Arms % of entries (rats; 0.3 mg/kg i.p.): 28.54 ± 6.70%
- Open Arms % of time (rats; 0.3 mg/kg i.p.): 9.84 ± 1.50%
- Open Arms Distance (rats; 0.3 mg/kg i.p.): 340 ± 59 cm
- Open Arms Entries (rats; 0.3 mg/kg i.p.): 5.28 ± 0.42
- Open Arms Time (rats; 0.3 mg/kg i.p.): 24.27 ± 3.41 s
- Open Arms % of entries (rats; 1 mg/kg i.p.): 33.64 ± 2.70%
- Open Arms % of time (rats; 1 mg/kg i.p.): 18.30 ± 4.10%
- Open Arms Distance (rats; 1 mg/kg i.p.): 646 ± 145 cm
- Open Arms Entries (rats; 1 mg/kg i.p.): 8.43 ± 1.36
- Open Arms Time (rats; 1 mg/kg i.p.): 44.24 ± 9.71 s
- Open Arms % of entries (rats; 3 mg/kg i.p.): 24.39 ± 7.60%
- Open Arms % of time (rats; 3 mg/kg i.p.): 7.03 ± 2.00%
- Open Arms Distance (rats; 3 mg/kg i.p.): 231 ± 87 cm
- Open Arms Entries (rats; 3 mg/kg i.p.): 4.17 ± 1.10
- Open Arms Time (rats; 3 mg/kg i.p.): 19.00 ± 5.50 s
- anxiolytic-like activity in EPM test (rats; i.p., 60 min before test): did not show anxiolytic-like activity
- Ki (dopaminergic receptor D2): 1.51 µM

SMILES: CCC(Oc1cccc(Cl)c1Cl)c1nc(N)nc(N2CCN(C)CC2)n1 (racemic) [Compound 2, (RS)-4-[1-(2,3-dichlorophenoxy)propyl]-6-(4-methylpiperazin-1-yl)-1,3,5-triazin-2-amine]
- Ki (5-HT1AR): 0.521 µM
- Emax (5-HT2A receptor; Table S2, read-out: 5-HT2A Antagonist mode Emax): 1%
- Emax (5-HT2A receptor; read-out: 5-HT2AR Agonist Mode Emax): 21 ± 0.6%
- increase of LDH leakage [1]: 86%
- Open Arms % of entries (rats; 0.3 mg/kg i.p.): 23.97 ± 4.97%
- Open Arms % of time (rats; 0.3 mg/kg i.p.): 14.85 ± 3.30%
- Open Arms Distance (rats; 0.3 mg/kg i.p.): 423 ± 87 cm
- Open Arms Entries (rats; 0.3 mg/kg i.p.): 6.50 ± 1.60
- Open Arms Time (rats; 0.3 mg/kg i.p.): 36.85 ± 8.90 s
- Open Arms % of entries (rats; 1 mg/kg i.p.): 26.53 ± 3.69%
- Open Arms % of time (rats; 1 mg/kg i.p.): 10.10 ± 1.20%
- Open Arms Distance (rats; 1 mg/kg i.p.): 279 ± 45 cm
- Open Arms Entries (rats; 1 mg/kg i.p.): 5.86 ± 0.90
- Open Arms Time (rats; 1 mg/kg i.p.): 24.75 ± 3.19 s
- increase of distance travelled in the open arms vs vehicle (rats; 3 mg/kg i.p.): 134%
- increase of number of open-arm entries vs vehicle (rats; 3 mg/kg i.p.): 160%
- increase of percentage of time spent in open arms vs vehicle (rats; 3 mg/kg i.p.): 137%
- increase of time spent in the open arms vs vehicle (rats; 3 mg/kg i.p.): 120%
- Open Arms % of entries (rats; 3 mg/kg i.p.): 41.89 ± 3.37%
- Open Arms % of time (rats; 3 mg/kg i.p.): 30.00 ± 3.60%
- Open Arms Distance (rats; 3 mg/kg i.p.): 914 ± 126 cm
- Open Arms Entries (rats; 3 mg/kg i.p.): 13.00 ± 2.30
- Open Arms Time (rats; 3 mg/kg i.p.): 72.23 ± 7.30 s
- increase of percentage of entries into open arms vs vehicle (rats; 3 mg/kg i.p., not significant): 68%
- dose with anxiolytic-like activity in EPM test (rats; i.p.): 3 mg/kg
- Ki (dopaminergic receptor D2): 0.421 µM
